Results taken from patent publication US12570666B2, “Furoindazole derivatives” (Bayer Aktiengesellschaft, priority 2019, dated 2026).
pIC50: −log10 of the molar value.

Target: T1, human GPR84 receptor (Homo sapiens, UniProt Q9NQS5)
T1 construct: frozen aliquots prepared by acCELLerate; host or cells: CHO-K1
Experiment: cAMP HTRF assay for identification of cellular GPR84 antagonists
Format: cell-based
Settings: CHO-K1 cells stably expressing human GPR84; Forskolin + agonist 6-OAU (EC80); average or median values
In short: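 IC50 came from 4-parameter fits over 20 μM–0.07 nM (11 points, duplicate), normalized between DMSO (0%) and agonist-free (100% inhibition) wells. Readout: cAMP-d2/Eu-cryptate HTRF in hGPR84 CHO-K1 cells given forskolin plus agonist, compound preincubated 30 min at room temperature.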

T1 sequence (Q9NQS5 whole entry): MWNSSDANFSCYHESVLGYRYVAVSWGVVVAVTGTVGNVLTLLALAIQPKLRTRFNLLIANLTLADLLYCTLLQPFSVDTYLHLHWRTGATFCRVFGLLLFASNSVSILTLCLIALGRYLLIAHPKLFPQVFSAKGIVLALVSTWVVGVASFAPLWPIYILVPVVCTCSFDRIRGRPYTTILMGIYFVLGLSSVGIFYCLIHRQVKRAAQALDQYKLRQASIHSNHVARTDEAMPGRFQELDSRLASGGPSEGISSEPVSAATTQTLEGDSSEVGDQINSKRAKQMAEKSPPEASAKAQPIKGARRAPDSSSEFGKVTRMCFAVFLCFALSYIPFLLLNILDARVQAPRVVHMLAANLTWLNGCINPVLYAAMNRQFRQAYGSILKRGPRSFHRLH

SMILES	pIC50
Cc1cccc(Cn2cc3c(n2)-c2c(oc(C(=O)NCc4ccn(C)n4)c2C)CC3)n1 [Example 71, 8-methyl-N-[(1-methyl-1H-pyrazol-3-yl)methyl]-2-[(6-methylpyridin-2-yl)methyl]-4,5-dihydro-2H-furo[2,3-g]indazole-7-carboxamide]	6.44
O=C(NC[C@@H]1CCCO1)c1oc2c(c1C(F)(F)F)-c1nn(C[C@H]3COCCO3)cc1C1(CC1)C2 [Example 168, 2′-[(2S)-1,4-dioxan-2-ylmethyl]-N-[(2S)-tetrahydrofuran-2-ylmethyl]-8′-(trifluoromethyl)-2′,5′-dihydrospiro[cyclopropane-1,4′-furo[2,3-g]indazole]-7′-carboxamide]	8.00
Cc1ccc(Cn2cc3c(n2)-c2c(oc(C(=O)NC[C@@H]4CCCO4)c2C(F)(F)F)CC32CC2)nc1 [Example 214, 2′-[(5-methylpyridin-2-yl)methyl]-N-{[(2S)-oxolan-2-yl]methyl}-8′-(trifluoromethyl)-2′,5′-dihydrospiro[cyclopropane-1,4′-furo[2,3-g]indazole]-7′-carboxamide]	8.30
Cc1c(C(=O)NCC2(C)CCCO2)oc2c1-c1nn(Cc3ccccn3)cc1CC2 (racemic) [Example 173]	5.15
O=C(NC[C@@H]1CCCO1)c1oc2c(c1C1CC1)-c1nn(C[C@H]3COCCO3)cc1CC2 [Example 194]	7.52
Cc1c(C(=O)NCc2ccon2)oc2c1-c1nn(Cc3ccccn3)cc1CC2 [Example 6, 8-methyl-N-(1,2-oxazol-3-ylmethyl)-2-(pyridin-2-ylmethyl)-4,5-dihydro-2H-furo[2,3-g]indazole-7-carboxamide]	6.10
Cc1c(C(=O)NC[C@@H]2COCCO2)oc2c1-c1nn(Cc3ncccn3)cc1CC2 [Example 84, N-[(2R)-1,4-dioxan-2-ylmethyl]-8-methyl-2-(pyrimidin-2-ylmethyl)-4,5-dihydro-2H-furo[2,3-g]indazole-7-carboxamide]	6.74
CC1Cc2oc(C(=O)NC[C@@H]3COCCO3)c(C(F)(F)F)c2-c2nn(C[C@H]3COCCO3)cc21 (mixture of isomers) [Example 254, (4±)-N-{[(2R)-1,4-dioxan-2-yl]methyl}-2-{[(2S)-1,4-dioxan-2-yl]methyl}-4-methyl-8-(trifluoromethyl)-4,5-dihydro-2H-furo[2,3-g]indazole-7-carboxamide]	8.22
O=C(NC[C@@H]1COCCO1)c1oc2c(c1C(F)F)-c1nn(C[C@H]3COCCO3)cc1CC2 [Example 244, 8-(difluoromethyl)-N-{[(2R)-1,4-dioxan-2-yl]methyl}-2-{[(2S)-1,4-dioxan-2-yl]methyl}-4,5-dihydro-2H-furo[2,3-g]indazole-7-carboxamide]	7.28
Cc1c(C(=O)NCC2CCC(=O)O2)oc2c1-c1nn(Cc3ccccn3)cc1CC2 (racemic) [Example 39, 8-methyl-N-{[(2R/S)-5-oxotetrahydrofuran-2-yl]methyl}-2-(pyridin-2-ylmethyl)-4,5-dihydro-2H-furo[2,3-g]indazole-7-carboxamide]	6.02
CCN1CCC(Cn2cc3c(n2)-c2c(oc(C(=O)NC[C@@H]4COCCO4)c2C(F)(F)F)CC3)CC1 [Example 312, N-{[(2R)-1,4-dioxan-2-yl]methyl}-2-[(1-ethylpiperidin-4-yl)methyl]-8-(trifluoromethyl)-4,5-dihydro-2H-furo[2,3-g]indazole-7-carboxamide]	6.12
Cc1c(C(=O)NCc2cc(C(C)C)on2)oc2c1-c1nn(Cc3ccccn3)cc1CC2 [Example 18, N-[(5-isopropyl-1,2-oxazol-3-yl)methyl]-8-methyl-2-(pyridin-2-ylmethyl)-4,5-dihydro-2H-furo[2,3-g]indazole-7-carboxamide]	7.01
Cc1c(C(=O)NC[C@@H]2COCCO2)oc2c1-c1nn(CCNC(=O)OC(C)(C)C)cc1CC2 [Example 140, tert-butyl [2-(7-{[(2R)-1,4-dioxan-2-ylmethyl]carbamoyl}-8-methyl-4,5-dihydro-2H-furo[2,3-g]indazol-2-yl)ethyl]carbamate]	7.08
O=C(NCCc1cnccn1)c1oc2c(c1C(F)(F)F)-c1nn(C[C@H]3COCCO3)cc1CC2 [Example 240, 2-{[(2S)-1,4-dioxan-2-yl]methyl}-N-[2-(pyrazin-2-yl)ethyl]-8-(trifluoromethyl)-4,5-dihydro-2H-furo[2,3-g]indazole-7-carboxamide]	5.55
Cc1c(C(=O)NCCN2CC(C)(C)C2=O)oc2c1-c1nn(Cc3ccccn3)cc1CC2 [Example 28, N-[2-(3,3-dimethyl-2-oxoazetidin-1-yl)ethyl]-8-methyl-2-(pyridin-2-ylmethyl)-4,5-dihydro-2H-furo[2,3-g]indazole-7-carboxamide]	5.34
Cc1c(C(=O)NC[C@@H]2COCCO2)oc2c1-c1nn(C[C@H]3COCCO3)cc1[C@H](C(F)(F)F)C2 (single isomer, unassigned) [Example 265-1, (4R or 4S)-N-{[(2R)-1,4-dioxan-2-yl]methyl}-2-{[(2S)-1,4-dioxan-2-yl]methyl}-8-methyl-4-(trifluoromethyl)-4,5-dihydro-2H-furo[2,3-g]indazole-7-carboxamide]	6.73
C[C@@H]1Cc2oc(C(=O)NC[C@@H]3CCCO3)c(C(F)(F)F)c2-c2nn(CC3CCN(C(=O)C4CC4)CC3)cc21 (single isomer, unassigned) [Example 290, (4R or 4S)-2-{[1-(cyclopropanecarbonyl)piperidin-4-yl]methyl}-4-methyl-N-{[(2S)-oxolan-2-yl]methyl}-8-(trifluoromethyl)-4,5-dihydro-2H-furo[2,3-g]indazole-7-carboxamide]	8.40
CN1CCC(Cn2cc3c(n2)-c2c(oc(C(=O)NC[C@@H]4CCCO4)c2C(F)(F)F)CC3)CC1 [Example 308, 2-[(1-methylpiperidin-4-yl)methyl]-N-{[(2S)-oxolan-2-yl]methyl}-8-(trifluoromethyl)-4,5-dihydro-2H-furo[2,3-g]indazole-7-carboxamide]	6.82
Cc1c(C(=O)NC[C@@H]2COCCO2)oc2c1-c1nn(CC3COC3)cc1CC2 [Example 92, N-[(2R)-1,4-dioxan-2-ylmethyl]-8-methyl-2-(oxetan-3-ylmethyl)-4,5-dihydro-2H-furo[2,3-g]indazole-7-carboxamide]	6.89
Cc1c(C(=O)NC[C@@H]2CCCO2)oc2c1-c1nn(Cc3ccc(C(F)(F)F)cn3)cc1CC2 [Example 57, 8-methyl-N-[(2S)-tetrahydrofuran-2-ylmethyl]-2-{[5-(trifluoromethyl)pyridin-2-yl]methyl}-4,5-dihydro-2H-furo[2,3-g]indazole-7-carboxamide]	6.72
O=C(NC[C@@H]1CCCO1)c1oc2c(c1C(F)(F)F)-c1nn(CC3CCN(C(=O)c4ccccc4)CC3)cc1CC2 [Example 288, 2-[(1-benzoylpiperidin-4-yl)methyl]-N-{[(2S)-oxolan-2-yl]methyl}-8-(trifluoromethyl)-4,5-dihydro-2H-furo[2,3-g]indazole-7-carboxamide]	7.00

Further compounds by rising pIC50, results first:

pIC50	SMILES
4.95	Cc1c(C(=O)Nc2ccc(C#N)cc2)oc2c1-c1nn(Cc3ccccn3)cc1CC2 [Example 43, N-(4-cyanophenyl)-8-methyl-2-(pyridin-2-ylmethyl)-4,5-dihydro-2H-furo[2,3-g]indazole-7-carboxamide]
5.85	Cc1c(C(=O)NCc2ncon2)oc2c1-c1nn(Cc3ccccn3)cc1CC2 [Example 5]
6.74	Cc1c(C(=O)NCC2COCC(C)(C)O2)oc2c1-c1nn(C[C@H]3COCCO3)cc1C1(CC1)C2 (mixture of isomers) [Example 196]
6.81	CN1CCC(Cn2cc3c(n2)-c2c(oc(C(=O)NC[C@@H]4COCCO4)c2C(F)(F)F)CC3)CC1 [Example 309, N-{[(2R)-1,4-dioxan-2-yl]methyl}-2-[(1-methylpiperidin-4-yl)methyl]-8-(trifluoromethyl)-4,5-dihydro-2H-furo[2,3-g]indazole-7-carboxamide]
7.26	Cc1c(C(=O)NC[C@@H]2CCCO2)oc2c1-c1nn(CC3CC3)cc1C1(CC1)C2 [Example 129, 2′-(cyclopropylmethyl)-8′-methyl-N-[(2S)-tetrahydrofuran-2-ylmethyl]-2′,5′-dihydrospiro[cyclopropane-1,4′-furo[2,3-g]indazole]-7′-carboxamide]
7.37	Cc1c(C(=O)NC[C@@H]2COCCO2)oc2c1-c1nn(Cc3ccccn3)cc1C1(CCC1)C2 [Example 134]
7.40	C[C@@H]1Cc2oc(C(=O)NCc3cn(C)cn3)c(C(F)(F)F)c2-c2nn(C[C@H]3COCCO3)cc21 (single isomer, unassigned) [Example 314, (4R or 4S)-2-{[(2S)-1,4-dioxan-2-yl]methyl}-4-methyl-N-[(1-methyl-1H-imidazol-4-yl)methyl]-8-(trifluoromethyl)-4,5-dihydro-2H-furo[2,3-g]indazole-7-carboxamide]
7.62	O=C(NCc1ncco1)c1oc2c(c1C(F)(F)F)-c1nn(Cc3ccccn3)cc1CC2 [Example 118, N-(1,3-oxazol-2-ylmethyl)-2-(pyridin-2-ylmethyl)-8-(trifluoromethyl)-4,5-dihydro-2H-furo[2,3-g]indazole-7-carboxamide]
7.92	O=C(NC[C@@H]1COCCO1)c1oc2c(c1C(F)(F)F)-c1nn(C[C@H]3COCCO3)cc1CC2 [Example 320, N-{[(2R)-1,4-dioxan-2-yl]methyl}-2-{[(2S)-1,4-dioxan-2-yl]methyl}-8-(trifluoromethyl)-4,5-dihydro-2H-furo[2,3-g]indazole-7-carboxamide]
8.10	O=C(NC[C@@H]1CCCO1)c1oc2c(c1C(F)(F)F)-c1nn(C[C@H]3COCCO3)cc1CC2 [Example 221, 2-{[(2S)-1,4-dioxan-2-yl]methyl}-N-{[(2S)-oxolan-2-yl]methyl}-8-(trifluoromethyl)-4,5-dihydro-2H-furo[2,3-g]indazole-7-carboxamide]
